Results reported in ChEMBL document CHEMBL4376876 (J Med Chem, 2020).
Converted amounts (≈) assume the structure as drawn.

Columns and labels:
[1] = system: Mycobacterium tuberculosis; assay: Antibacterial activity against Mycobacterium tuberculosis H37Rv after 7 days by resazurin dye-based assay; format: functional; details: 168 h
[2] = system: Mycobacterium tuberculosis; assay: Antimycobacterial activity against Mycobacterium tuberculosis H37Rv transfected with pMV261 empty vector after 7 days by resazurin dye-based assay; format: functional; details: 168 h
[3] = system: Mycobacterium tuberculosis; assay: Antimycobacterial activity against Mycobacterium tuberculosis H37Rv over expressing InhA after 7 days by resazurin dye-based assay; format: functional; details: 168 h
[4] = Stability in Middlebrook 7H9 medium at 10 ug/ml after 7 days relative to control; format: physicochemical; details: read-out: Stability

SMILES	MIC [1]	MIC [2]	MIC [3]	remaining at 168 h, 10 ug/ml [4]
C[C@@H]1C(=O)N[C@H](C2CCCCC2)C(=O)O[C@H](C)[C@H](NC(=O)c2ncccc2O)C(=O)N[C@@H](Cc2cccnc2)[C@@H]1O	136 µM (≈ 77.1 µg/mL)			
CC[C@@H](C)[C@H]1NC(=O)[C@H](C)[C@H](O)[C@H](Cc2cccnc2)NC(=O)[C@@H](NC(=O)c2ncccc2O)[C@@H](C)OC1=O	185 µM (≈ 100 µg/mL)			
CC(C)[C@H]1OC(=O)[C@H](C)[C@H](O)[C@H](Cc2cccnc2)NC(=O)[C@@H](NC(=O)c2ncccc2O)[C@@H](C)OC1=O	3.2 µM (≈ 1.69 µg/mL)	3.1 µM (≈ 1.64 µg/mL)	24.2 µM (≈ 12.8 µg/mL)	
CC[C@H](C)[C@H]1OC(=O)[C@H](C)[C@H](O)[C@H](Cc2cccnc2)NC(=O)[C@@H](NC(=O)c2ncccc2O)[C@@H](C)OC1=O	2.9 µM (≈ 1.57 µg/mL)	2.9 µM (≈ 1.57 µg/mL)	2.9 µM (≈ 1.57 µg/mL)	
NNC(=O)c1ccncc1 [ISONIAZID]		1.2 µM (≈ 0.165 µg/mL)	37.3 µM (≈ 5.12 µg/mL)	
C[C@H](c1ccccc1)[C@H]1OC(=O)[C@H](C)[C@H](O)[C@H](Cc2cccnc2)NC(=O)[C@@H](NC(=O)c2ncccc2O)[C@@H](C)OC1=O	2.6 µM (≈ 1.54 µg/mL)			
CC[C@H]1OC(=O)[C@H](C)[C@H](O)[C@H](Cc2cccnc2)NC(=O)[C@@H](NC(=O)c2ncccc2O)[C@@H](C)OC1=O	4.9 µM (≈ 2.52 µg/mL)	4.9 µM (≈ 2.52 µg/mL)	> 19.1 µM	
C[C@H]1OC(=O)[C@@H](Cc2ccccc2)OC(=O)[C@H](C)[C@H](O)[C@H](Cc2cccnc2)NC(=O)[C@H]1NC(=O)c1ncccc1O	4.3 µM (≈ 2.48 µg/mL)	4.3 µM (≈ 2.48 µg/mL)	> 17.3 µM	
C[C@H]1OC(=O)[C@@H](CO)OC(=O)[C@H](C)[C@H](O)[C@H](Cc2cccnc2)NC(=O)[C@H]1NC(=O)c1ncccc1O	96.8 µM (≈ 50 µg/mL)			
CC/C(C)=C1\OC(=O)[C@H](C)[C@H](O)[C@H](Cc2cccnc2)NC(=O)[C@@H](NC(=O)c2ncccc2O)[C@@H](C)OC1=O [PYRIDOMYCIN]	0.55 to 3.05 µM (≈ 0.297 to 1.65 µg/mL)	0.74 µM (≈ 0.4 µg/mL)	11.6 µM (≈ 6.25 µg/mL)	> 50%
CC(C)[C@H]1NC(=O)[C@@H](C)[C@@H](O)[C@H](Cc2cccnc2)NC(=O)[C@@H](NC(=O)c2ncccc2O)[C@@H](C)OC1=O	94.6 µM (≈ 49.9 µg/mL)			
CC(C)[C@@H]1OC(=O)[C@H](C)[C@H](O)[C@H](Cc2cccnc2)NC(=O)[C@@H](NC(=O)c2ncccc2O)[C@@H](C)OC1=O	26 µM (≈ 13.7 µg/mL)			
CC[C@@H](C)[C@H]1OC(=O)[C@H](C)[C@H](O)[C@H](Cc2cccnc2)NC(=O)[C@@H](NC(=O)c2ncccc2O)[C@@H](C)OC1=O	1.5 µM (≈ 0.814 µg/mL)			
C[C@H]1OC(=O)[C@H](C)[C@H](O)[C@H](Cc2cccnc2)NC(=O)[C@@H](NC(=O)c2ncccc2O)[C@@H](C)OC1=O	49.9 µM (≈ 25 µg/mL)			
C[C@H]1OC(=O)[C@@H]([C@@H](C)c2ccccc2)OC(=O)[C@H](C)[C@H](O)[C@H](Cc2cccnc2)NC(=O)[C@H]1NC(=O)c1ncccc1O	2.6 µM (≈ 1.54 µg/mL)			
